# Data from patent US11584756B2, “Heterocyclic compounds as BET inhibitors” (NUVATION BIO INC., priority 2019, dated 2023).
# Where two headings read alike, the source gives them in different places.
# Legend:
# BRD4-1 = BRD4-1 (Homo sapiens (Human), UniProt O60885); assay: Bromodomain and Extraterminal Domain (BET) binding assay, BRD4-1; conditions: histone H4 peptide (1-21) K5/8/12/16Ac-biotin ligand; 20 nM protein, 20 nM ligand
# Method: (§1) The bromodomain binding assays were performed by Reaction Biology Corp., Malvern, Pa., USA (www.reactionbiology.com). The BET binding assays were conducted in 384 well microplates in assay buffer (50 mM HEPES-HCl, pH 7.5, 100 mM NaCl, 1 mg/ml BSA, 0.05% CHAPS, and 0.5% DMSO) with compounds added as DMSO stocks at a single concentration or with 10-point dose response titrations. BET protein or assay buffer were delivered to the appropriate wells of the microplate. Test compound was then delivered by acoustic technology via a Labcyte Echo550 liquid handler. The microplate was centrifuged for 5 min and pre-incubated for 30 min at RT with gentle shaking. The ligand (histone H4 peptide (1-21) K5/8/12/16Ac-biotin) was delivered and the microplate was again centrifuged for 5 min and allowed to incubate for 30 min at RT with gentle shaking. Donor beads were then added in the absence of light and the microplate was centrifuged and gently shaken. After 5 min, acceptor beads were added in the absence of light and the microplate was centrifuged and gently shaken in the dark for 60 min. The microplate was read using a Perkin Elmer EnSpire Alpha plate reader (λ Ex/λ Em=680/520-620 nm). Percent inhibition was calculated relative to positive and negative controls on a per plate basis. For titration experiments, IC50 values were determined by fitting the percent inhibition versus compound concentration.
# BRD4-2 = BRD4-2 (Homo sapiens (Human), UniProt O60885); assay: Bromodomain and Extraterminal Domain (BET) binding assay, BRD4-2; conditions: histone H4 peptide (1-21) K5/8/12/16Ac-biotin ligand; 130 nM protein, 70 nM ligand
# Method: as §1
# [1] = system: MV-4-11 human acute myeloid leukemia cell line; assay: Cell viability assay in MV-4-11 cells (Cell Titer-Glo); type: cell-based; conditions: MV4-11, 72 hrs incubation
# Method: The effects of test compounds were studied in a cell viability assay in the MV-4-11 human acute myeloid leukemia cell line. The cells were harvested during the logarithmic growth period and counted. Cells were seeded at a count of 15000 cells per well/100 μl. After seeding, cells were incubated at 37° C. 5% CO2 for 1 hr. Cells were treated with test compounds at 8 concentrations within a desired concentration range (e.g. 5 nM-10 μM) for generation of dose response curves by preparing serial dilutions of the test compound in DMSO which were further diluted with culture medium and then added to each well. The plate was further incubated for another 72 hrs in a humidified incubator at 37° C. and 5% CO2. The assay was terminated by addition of Cell Titer-Glo reagent (Promega, Madison, Wis.) at ¼ the volume of total medium per well. Contents were mixed, the plate was incubated for 10 min at room temperature and luminescence was measured. Cell viability data were plotted using GraphPad Prism (GraphPad Software, Inc., San Diego, Calif.). In addition, a nonlinear regression model with a sigmoidal dose response and variable slope within GraphPad Prism was used to calculate the IC50 value of individual test compounds.
# [2] = system: IEC-6 rat intestinal epithelial cell line; assay: Cell viability assay in IEC-6 cells (resazurin), potential toxicity to non-cancerous cells; type: cell-based
# Method: The effects of test compounds were also studied in the IEC-6 rat intestinal epithelial cell line to assess potential toxicity to non-cancerous cells. The cells were harvested during the logarithmic growth period and counted. In Protocol A, cells were seeded at a count of 3000 cells per well/100 μl in a 96-well plate. After seeding, cells were incubated at 37° C. 5% CO2 for 24 hr. Cells were treated with test compounds at 8 concentrations within a desired concentration range (e.g. 5 nM-10 μM) for generation of dose response curves by preparing serial dilutions of the test compound in DMSO which were further diluted with culture medium and then added to each well. The plate was further incubated for another 96 hrs in humidified incubator at 37° C. and 5% CO2. The assay was terminated by addition of resazurin (#R7017, Sigma). The plate was incubated for 4 hr at 37° C. 5% CO2 and fluorescence was measured using excitation and emission wavelengths of 535 and 590 nm, respectively. Cell viability data were plotted using GraphPad Prism (GraphPad Software, Inc., San Diego, Calif.). In addition, a nonlinear regression model with a sigmoidal dose response and variable slope within GraphPad Prism was used to calculate the IC50 value of individual test compounds. Protocol B was the same as Protocol A except that cells were seeded at a count of 4000 cells per well/100 μl in a 96-well plate, and the incubation with test compound was for 48 hrs instead of 96 hrs.
# [3] = Protocol A: 3000 cells per well, 96 hrs incubation with test compound, read-out: Protocol A IC50 (μM), cell viability in IEC-6 cells
# [4] = Protocol B: 4000 cells per well, 48 hrs incubation with test compound, read-out: Protocol B IC50 (μM), cell viability in IEC-6 cells
IC50 (BRD4-1) [nM],IC50 (BRD4-2) [nM],IC50 [1] [µM],SMILES,"IC50 [2, 3] [µM]","IC50 [2, 4] [µM]"
197,6,0.115,"CCS(=O)(=O)Nc1ccc(Oc2c(C)cccc2C)c(-c2cn(C)c(=O)c3sc(-c4nnc(C)o4)cc23)c1 [Compound 4, N-(4-(2,6-dimethylphenoxy)-3-(6-methyl-2-(5-methyl-1,3,4-oxadiazol-2-yl)-7-oxo-6,7-dihydrothieno[2,3-c]pyridin-4-yl)phenyl)ethanesulfonamide]",0.048,0.283
299,1.8,0.047,"CCNC(=O)c1cc2c(-c3cc(NS(=O)(=O)CC)ccc3Oc3c(C)cccc3C)cn(C)c(=O)c2s1 [Compound 147, 4-(2-(2,6-dimethylphenoxy)-5-(ethylsulfonamido)phenyl)-N-ethyl-6-methyl-7-oxo-6,7-dihydrothieno[2,3-c]pyridine-2-carboxamide]",,1.77
2050,< 2,0.074,"CCNC(=O)c1cc2c(-c3cc(C(C)(C)O)ccc3Oc3ccc(F)cc3F)cn(C)c(=O)c2s1 [Compound 3, 4-(2-(2,4-difluorophenoxy)-5-(2-hydroxypropan-2-yl)phenyl)-N-ethyl-6-methyl-7-oxo-6,7-dihydrothieno[2,3-c]pyridine-2-carboxamide]",0.089,
10100,2,0.131,"CCNC(=O)c1cc2c(-c3cc(C(C)(C)O)ccc3Oc3c(C)cc(F)cc3C)cn(C)c(=O)c2s1 [Compound 1, N-ethyl-4-(2-(4-fluoro-2,6-dimethylphenoxy)-5-(2-hydroxypropan-2-yl)phenyl)-6-methyl-7-oxo-6,7-dihydrothieno[2,3-c]pyridine-2-carboxamide]",0.266,4.91
2920,2,0.084,"CCNC(=O)c1cc2c(=O)n(C)cc(-c3cc(C(C)(C)O)ccc3Oc3c(C)cc(F)cc3C)c2s1 [Compound 146, N-ethyl-7-(2-(4-fluoro-2,6-dimethylphenoxy)-5-(2-hydroxypropan-2-yl)phenyl)-5-methyl-4-oxo-4,5-dihydrothieno[3,2-c]pyridine-2-carboxamide]",,0.729
601,7,0.245,"Cn1cc(-c2cc(C(C)(C)O)ccc2Oc2ccc(F)cc2F)c2cc(C(=O)NC3CC3)sc2c1=O [Compound 145, N-cyclopropyl-4-(2-(2,4-difluorophenoxy)-5-(2-hydroxypropan-2-yl)phenyl)-6-methyl-7-oxo-6,7-dihydrothieno[2,3-c]pyridine-2-carboxamide]",,0.691
